Converted amounts (≈) assume the structure as drawn. The source made the active and inactive calls. No cut-off for these calls is given here.
Assays:
Candida albicans [1] = experiment: Antifungal activity against Candida albicans 90028 ATCC assessed as inhibition of growth at 8 ug/ml after 48 hrs relative to control; type: functional
Candida albicans [2] = experiment: Antifungal activity against Candida albicans 90028 ATCC assessed as inhibition of growth at 0.06 ug/ml after 48 hrs relative to control; type: functional
Candida albicans [3] = experiment: Antifungal activity against Candida albicans 90028 ATCC assessed as inhibition of growth at 16 ug/ml after 48 hrs relative to control; type: functional
Candida albicans [4] = experiment: Antifungal activity against Candida albicans 90028 ATCC assessed as decrease in turbidity after 48 hrs relative to control; type: functional
Candida albicans [5] = experiment: Antifungal activity against Candida albicans 90028 ATCC assessed as inhibition of growth at 0.25 ug/ml after 48 hrs relative to control; type: functional
Candida albicans [6] = experiment: Antifungal activity against Candida albicans 90028 ATCC assessed as inhibition of growth at 1 ug/ml after 48 hrs relative to control; type: functional
Candida albicans [7] = experiment: Antifungal activity against Candida albicans 90028 ATCC assessed as inhibition of growth at 0.5 ug/ml after 48 hrs relative to control; type: functional
Candida albicans [8] = experiment: Antifungal activity against Candida albicans 90028 ATCC assessed as inhibition of growth at 0.12 ug/ml after 48 hrs relative to control; type: functional
Candida albicans [9] = experiment: Antifungal activity against Candida albicans 90028 ATCC assessed as inhibition of growth at 0.03 ug/ml after 48 hrs relative to control; type: functional
Candida albicans [10] = experiment: Antifungal activity against Candida albicans 90028 ATCC assessed as inhibition of growth at 4 ug/ml after 48 hrs relative to control; type: functional
Candida albicans [11] = experiment: Antifungal activity against Candida albicans 90028 ATCC assessed as inhibition of growth at 2 ug/ml after 48 hrs relative to control; type: functional
Candida albicans [12] = experiment: Inhibition of Candida albicans with loss of one copy KEX2 allele and both copies of URA3 CNA2 mutant adhesion to the Caco-2 cell line; type: functional
Candida albicans [13] = experiment: Inhibition of wild type Candida albicans adherence to Caco2 cells at 16 ug/ml after 18 hrs; type: functional; details: Caco-2, 18 h
Vero = experiment: Cytotoxicity against african green monkey Vero cells assessed as reduction in cell viability at 2 to 0.125 ug/mL after 6 hrs by XTT assay; type: cell-based; details: chlorocebus sabaeus
[14] = Cytotoxicity against african green monkey Vero cells assessed as reduction in cell viability at 4 to 32 ug/mL after 6 hrs by XTT assay; type: cell-based; details: chlorocebus sabaeus, read-out: INH
Candida albicans [15] = experiment: Inhibition of Candida albicans 1008 with trp1/kex2 delta mutant adhesion to the Caco-2 cell line; type: functional
Candida albicans [16] = experiment: Inhibition of Wild type Candida albicans SC5314 adhesion to the Caco-2 cell line; type: functional
Candida albicans [17] = experiment: Inhibition of Candida albicans bioflim formation during Caco2 cell invasion assessed as sessile growth at 16 ug/ml after 18 hrs by confocal laser scanning microscopy; type: functional, organism-based; details: Caco-2
Candida albicans [18] = experiment: Inhibition of Candida albicans 1008 adhesion to the Caco-2 cell line; type: functional
Candida albicans [19] = experiment: Inhibition of Candida albicans kex delta CNA1 mutant adhesion to the Caco-2 cell line; type: functional, organism-based
Candida albicans [20] = experiment: Inhibition of Candida albicans with loss of both copies KEX2 allele and both copies of URA3 CNA4 mutant adhesion to the Caco-2 cell line; type: functional, organism-based
Nakaseomyces glabratus = experiment: Inhibition of Candida glabrate 1010 with kex2 delta mutant and functional TRP1 adhesion to the Caco-2 cell line; type: organism-based
Candida albicans [21] = experiment: Antifungal activity against Candida albicans 90028 ATCC assessed as reduction in 99% growth after 48 hrs relative to control; type: functional
Candida albicans [22] = experiment: Inhibition of Candida albicans bioflim formation during Caco2 cell invasion assessed as lack of hyphea at 1 ug/ml after 18 hrs by confocal laser scanning microscopy; type: functional, organism-based; details: Caco-2
[23] = Cytotoxicity against african green monkey Vero cells assessed as reduction in cell viability at 64 to 256 ug/mL after 6 hrs by XTT assay; type: cell-based; details: chlorocebus sabaeus, read-out: INH

## CC(=O)OC(C)CCn1nnc(-c2ccccc2)n1 (racemic)
Candida albicans [1]
  inhibition at 8 µg/mL: 99%
Candida albicans [2]
  inhibition at 0.06 µg/mL: 98.9%
Candida albicans [3]
  inhibition at 16 µg/mL: 98.8%
Candida albicans [4]
  MIC: 4 µg/mL (≈ 15.4 µM)
Candida albicans [5]
  inhibition at 0.25 µg/mL: 99%
Candida albicans [6]
  inhibition at 1 µg/mL: 98.9%
Candida albicans [7]
  inhibition at 0.5 µg/mL: 98.9%
Candida albicans [8]
  inhibition at 0.12 µg/mL: 98.9%
Candida albicans [9]
  inhibition at 0.03 µg/mL: 98.9%
Candida albicans [10]
  inhibition at 4 µg/mL: 99%
Candida albicans [11]
  inhibition at 2 µg/mL: 98.9%

## CC(=O)OC(C)CCn1nnc(-c2ccc(C)cc2)n1 (racemic)
Candida albicans [1]
  inhibition at 8 µg/mL: 99%
Candida albicans [2]
  inhibition at 0.06 µg/mL: 98.9%
Candida albicans [3]
  inhibition at 16 µg/mL: 98.9%
Candida albicans [4]
  MIC: 4 µg/mL (≈ 14.6 µM)
Candida albicans [5]
  inhibition at 0.25 µg/mL: 99%
Candida albicans [6]
  inhibition at 1 µg/mL: 98.9%
Candida albicans [7]
  inhibition at 0.5 µg/mL: 98.9%
Candida albicans [8]
  inhibition at 0.12 µg/mL: 98.9%
Candida albicans [9]
  inhibition at 0.03 µg/mL: 98.9%
Candida albicans [10]
  inhibition at 4 µg/mL: 99%
Candida albicans [11]
  inhibition at 2 µg/mL: 99%

## CC(=O)OC(C)CCn1nnc(-c2ccccc2Cl)n1 (racemic)
Candida albicans [1]
  inhibition at 8 µg/mL: 99%
Candida albicans [2]
  inhibition at 0.06 µg/mL: 98.9%
Candida albicans [3]
  inhibition at 16 µg/mL: 98.9%
Candida albicans [4]
  MIC: 4 µg/mL (≈ 13.6 µM)
Candida albicans [5]
  inhibition at 0.25 µg/mL: 98.9%
Candida albicans [6]
  inhibition at 1 µg/mL: 98.9%
Candida albicans [7]
  inhibition at 0.5 µg/mL: 98.9%
Candida albicans [8]
  inhibition at 0.12 µg/mL: 98.9%
Candida albicans [9]
  inhibition at 0.03 µg/mL: 98.9%
Candida albicans [10]
  inhibition at 4 µg/mL: 99%
Candida albicans [11]
  inhibition at 2 µg/mL: 98.9%

## CC(=O)OC(C)Cn1nnc(-c2ccc(C)cc2)n1 (racemic)
Candida albicans [1]
  inhibition at 8 µg/mL: 99%
Candida albicans [2]
  inhibition at 0.06 µg/mL: 98.9%
Candida albicans [3]
  inhibition at 16 µg/mL: 99%
Candida albicans [4]
  MIC: 0.5 µg/mL (≈ 1.92 µM)
Candida albicans [5]
  inhibition at 0.25 µg/mL: 98.9%
Candida albicans [6]
  inhibition at 1 µg/mL: 99.1%
Candida albicans [7]
  inhibition at 0.5 µg/mL: 99%
Candida albicans [8]
  inhibition at 0.12 µg/mL: 99%
Candida albicans [9]
  inhibition at 0.03 µg/mL: 98.7%
Candida albicans [10]
  inhibition at 4 µg/mL: 99.1%
Candida albicans [11]
  inhibition at 2 µg/mL: 99%

## CC(=O)OC(C)Cn1nnc(-c2ccccc2Cl)n1 (racemic)
Candida albicans [12]
  inhibition (INH): 91%
Candida albicans [13]
  inhibition at 16 µg/mL: 86%
Candida albicans [1]
  inhibition at 8 µg/mL: 99%
Vero
  Activity: Non-toxic
[14]
  cytotoxicity at 6 h: 4%
Candida albicans [2]
  inhibition at 0.06 µg/mL: 98.9%
Candida albicans [3]
  inhibition at 16 µg/mL: 99%
Candida albicans [15]
  inhibition (INH): 82.89%
Candida albicans [16]
  inhibition (INH): 86%
Candida albicans [17]
  Activity: inactive
Candida albicans [5]
  inhibition at 0.25 µg/mL: 99%
Candida albicans [6]
  inhibition at 1 µg/mL: 99%
Candida albicans [18]
  inhibition (INH): 42.3%
Candida albicans [19]
  inhibition: inactive
Candida albicans [7]
  inhibition at 0.5 µg/mL: 99%
Candida albicans [20]
  inhibition: inactive
Candida albicans [8]
  inhibition at 0.12 µg/mL: 99%
Nakaseomyces glabratus
  inhibition: inactive
Candida albicans [9]
  inhibition at 0.03 µg/mL: 98.9%
Candida albicans [10]
  inhibition at 4 µg/mL: 99%
Candida albicans [21]
  MFC: 0.0313 µg/mL (≈ 0.112 µM)
Candida albicans [11]
  inhibition at 2 µg/mL: 99%
Candida albicans [22]
  inhibition: inactive
[23]
  cytotoxicity at 6 h: 13%

## CC(O)CCn1nnc(-c2ccccc2)n1 (racemic)
Candida albicans [1]
  inhibition at 8 µg/mL: 98.9%
Candida albicans [2]
  inhibition at 0.06 µg/mL: 98.9%
Candida albicans [3]
  inhibition at 16 µg/mL: 98.9%
Candida albicans [4]
  MIC: 0.125 µg/mL (≈ 0.573 µM)
Candida albicans [5]
  inhibition at 0.25 µg/mL: 99%
Candida albicans [6]
  inhibition at 1 µg/mL: 99%
Candida albicans [7]
  inhibition at 0.5 µg/mL: 99%
Candida albicans [8]
  inhibition at 0.12 µg/mL: 99%
Candida albicans [9]
  inhibition at 0.03 µg/mL: 98.8%
Candida albicans [10]
  inhibition at 4 µg/mL: 99%
Candida albicans [11]
  inhibition at 2 µg/mL: 98.9%

## Cc1ccc(-c2nnn(CCC(C)O)n2)cc1 (racemic)
Candida albicans [1]
  inhibition at 8 µg/mL: 98.9%
Candida albicans [2]
  inhibition at 0.06 µg/mL: 99%
Candida albicans [3]
  inhibition at 16 µg/mL: 98.9%
Candida albicans [4]
  MIC: 4 µg/mL (≈ 17.2 µM)
Candida albicans [5]
  inhibition at 0.25 µg/mL: 98.9%
Candida albicans [6]
  inhibition at 1 µg/mL: 98.9%
Candida albicans [7]
  inhibition at 0.5 µg/mL: 98.9%
Candida albicans [8]
  inhibition at 0.12 µg/mL: 98.9%
Candida albicans [9]
  inhibition at 0.03 µg/mL: 98.9%
Candida albicans [10]
  inhibition at 4 µg/mL: 99%
Candida albicans [11]
  inhibition at 2 µg/mL: 98.9%

## CC(O)CCn1nnc(-c2ccccc2Cl)n1 (racemic)
Candida albicans [1]
  inhibition at 8 µg/mL: 99%
Candida albicans [2]
  inhibition at 0.06 µg/mL: 98.9%
Candida albicans [3]
  inhibition at 16 µg/mL: 99%
Candida albicans [4]
  MIC: 8 µg/mL (≈ 31.7 µM)
Candida albicans [5]
  inhibition at 0.25 µg/mL: 98.9%
Candida albicans [6]
  inhibition at 1 µg/mL: 99%
Candida albicans [7]
  inhibition at 0.5 µg/mL: 99%
Candida albicans [8]
  inhibition at 0.12 µg/mL: 99%
Candida albicans [9]
  inhibition at 0.03 µg/mL: 98.8%
Candida albicans [10]
  inhibition at 4 µg/mL: 99%
Candida albicans [11]
  inhibition at 2 µg/mL: 98.9%

## CC(O)Cn1nnc(-c2ccccc2)n1 (racemic)
Candida albicans [1]
  inhibition at 8 µg/mL: 98.9%
Candida albicans [2]
  inhibition at 0.06 µg/mL: 98.8%
Candida albicans [3]
  inhibition at 16 µg/mL: 98.8%
Candida albicans [5]
  inhibition at 0.25 µg/mL: 98.7%
Candida albicans [6]
  inhibition at 1 µg/mL: 98.8%
Candida albicans [7]
  inhibition at 0.5 µg/mL: 98.7%
Candida albicans [8]
  inhibition at 0.12 µg/mL: 98.7%
Candida albicans [9]
  inhibition at 0.03 µg/mL: 98.8%
Candida albicans [10]
  inhibition at 4 µg/mL: 98.9%
Candida albicans [11]
  inhibition at 2 µg/mL: 98.8%

## Cc1ccc(-c2nnn(CC(C)O)n2)cc1 (racemic)
Candida albicans [1]
  inhibition at 8 µg/mL: 98.9%
Candida albicans [2]
  inhibition at 0.06 µg/mL: 99%
Candida albicans [3]
  inhibition at 16 µg/mL: 98.8%
Candida albicans [5]
  inhibition at 0.25 µg/mL: 99%
Candida albicans [6]
  inhibition at 1 µg/mL: 98.8%
Candida albicans [7]
  inhibition at 0.5 µg/mL: 98.9%
Candida albicans [8]
  inhibition at 0.12 µg/mL: 98.9%
Candida albicans [9]
  inhibition at 0.03 µg/mL: 98.9%
Candida albicans [10]
  inhibition at 4 µg/mL: 98.9%
Candida albicans [11]
  inhibition at 2 µg/mL: 98.9%

## CC(O)Cn1nnc(-c2ccccc2Cl)n1 (racemic)
Candida albicans [1]
  inhibition at 8 µg/mL: 99%
Candida albicans [2]
  inhibition at 0.06 µg/mL: 99%
Candida albicans [3]
  inhibition at 16 µg/mL: 98.9%
Candida albicans [4]
  MIC: 0.125 µg/mL (≈ 0.524 µM)
Candida albicans [5]
  inhibition at 0.25 µg/mL: 99%
Candida albicans [6]
  inhibition at 1 µg/mL: 99%
Candida albicans [7]
  inhibition at 0.5 µg/mL: 99.1%
Candida albicans [8]
  inhibition at 0.12 µg/mL: 99%
Candida albicans [9]
  inhibition at 0.03 µg/mL: 98.9%
Candida albicans [10]
  inhibition at 4 µg/mL: 99%
Candida albicans [11]
  inhibition at 2 µg/mL: 98.9%

## C[C@@H]1[C@H](O)[C@@H](C)/C=C/C=C/C=C/C=C/C=C/C=C/C=C/[C@H](O[C@@H]2O[C@H](C)[C@@H](O)[C@H](N)[C@@H]2O)C[C@@H]2O[C@](O)(C[C@@H](O)C[C@@H](O)[C@H](O)CC[C@@H](O)C[C@@H](O)CC(=O)O[C@H]1C)C[C@H](O)[C@H]2C(=O)O [AMPHOTERICIN B]
Candida albicans [7]
  inhibition at 0.5 µg/mL: 100%

— ChEMBL document CHEMBL3588797, “Tetrazole activity against Candida albicans. The role of KEX2 mutations in the sensitivity to (±)-1-[5-(2-chlorophenyl)-2H-tetrazol-2-yl]propan-2-yl acetate” (Bioorg Med Chem Lett, 2015)
